# Source: US10213433B2 (AbbVie Inc., priority 2010, dated 2019)
# Biological target: Bcl-2 protein (Homo sapiens (Human), UniProt P10415)
# Experiment: Bcl-2 binding TR-FRET (Time-Resolved Fluorescence-Resonance-Energy-Transfer) assay
# Settings: inhibition constant for binding to Bcl-2 protein
# From the text: The smaller the Ki value, the greater is the binding affinity.
# Bcl-2 protein, sequence (P10415 whole entry): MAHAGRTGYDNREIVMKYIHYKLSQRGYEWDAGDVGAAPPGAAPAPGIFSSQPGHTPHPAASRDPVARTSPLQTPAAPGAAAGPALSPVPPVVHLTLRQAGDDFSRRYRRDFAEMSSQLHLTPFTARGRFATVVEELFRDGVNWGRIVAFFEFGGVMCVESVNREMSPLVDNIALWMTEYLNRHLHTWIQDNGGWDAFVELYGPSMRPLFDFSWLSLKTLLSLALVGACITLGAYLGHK
row,Structure (SMILES),Ki [nM]
1,"COCCOCCN1CCOC(CNc2ccc(S(=O)(=O)NC(=O)c3ccc(N4CCN(CC5=C(c6ccc(Cl)cc6)CC(C)(C)CC5)CC4)cc3Oc3cnc4[nH]ccc4c3)cc2[N+](=O)[O-])C1 (stereo not drawn) [Compound 213, 4-(4-{[2-(4-chlorophenyl)-4,4-dimethylcyclohex-1-en-1-yl]methyl}piperazin-1-yl)-N-({4-[({4-[2-(2-methoxyethoxyl)ethyl]morpholin-2-yl}methyl)amino]-3-nitrophenyl}sulfonyl)-2-(1H-pyrrolo[2,3-b]pyridin-5-yloxy)benzamide]",< 0.01
2,"CC1(C)CCC(CN2CCN(c3ccc(C(=O)NS(=O)(=O)c4ccc(NCC5CN(CC#N)CCO5)c([N+](=O)[O-])c4)c(Oc4cnc5[nH]ccc5c4)c3)CC2)=C(c2ccc(Cl)cc2)C1 (stereo not drawn) [Compound 214, 4-(4-{[2-(4-chlorophenyl)-4,4-dimethylcyclohex-1-en-1-yl]methyl}piperazin-1-yl)-N-{[4-({[4-(cyanomethyl)morpholin-2-yl]methyl}amino)-3-nitrophenyl]sulfonyl}-2-(1H-pyrrolo[2,3-b]pyridin-5-yloxy)benzamide]",< 0.01
3,"CN(C)CC(=O)N1CCOC(CNc2ccc(S(=O)(=O)NC(=O)c3ccc(N4CCN(CC5=C(c6ccc(Cl)cc6)CC(C)(C)CC5)CC4)cc3Oc3cnc4[nH]ccc4c3)cc2[N+](=O)[O-])C1 (stereo not drawn) [Compound 215, 4-(4-{[2-(4-chlorophenyl)-4,4-dimethylcyclohex-1-en-1-yl]methyl}piperazin-1-yl)-N-{[4-({[4-(N,N-dimethylglycyl)morpholin-2-yl]methyl}amino)-3-nitrophenyl]sulfonyl}-2-(1H-pyrrolo[2,3-b]pyridin-5-yloxy)benzamide]",< 0.01
4,"CC1(C)CCC(CN2CCN(c3ccc(C(=O)NS(=O)(=O)c4ccc(NCC5CN(CC(=O)O)CCO5)c([N+](=O)[O-])c4)c(Oc4cnc5[nH]ccc5c4)c3)CC2)=C(c2ccc(Cl)cc2)C1 (stereo not drawn) [Compound 216, (2-{[(4-{[4-(4-{[2-(4-chlorophenyl)-4,4-dimethylcyclohex-1-en-1-yl]methyl}piperazin-1-yl)-2-(1H-pyrrolo[2,3-b]pyridin-5-yloxy)benzoyl]sulfamoyl}-2-nitrophenyl)amino]methyl}morpholin-4-yl)acetic acid]",< 0.01
5,"CC1(C)CCC(CN2CCN(c3ccc(C(=O)NS(=O)(=O)c4ccc(NCC5CN(C6COC6)CCO5)c([N+](=O)[O-])c4)c(Oc4cnc5[nH]ccc5c4)c3)CC2)=C(c2ccc(Cl)cc2)C1 (stereo not drawn) [Compound 217, 4-(4-{[2-(4-chlorophenyl)-4,4-dimethylcyclohex-1-en-1-yl]methyl}piperazin-1-yl)-N-{[3-nitro-4-({[4-(oxetan-3-yl)morpholin-2-yl]methyl}amino)phenyl]sulfonyl}-2-(1H-pyrrolo[2,3-b]pyridin-5-yloxy)benzamide]",< 0.01
6,"CC1(C)CCC(CN2CCN(c3ccc(C(=O)NS(=O)(=O)c4ccc(NC5CCN(C(C)(C)C)CC5)c([N+](=O)[O-])c4)c(Oc4cnc5[nH]ccc5c4)c3)CC2)=C(c2ccc(Cl)cc2)C1 [Compound 227, N-({4-[(1-tert-butylpiperidin-4-yl)amino]-3-nitrophenyl}sulfonyl)-4-(4-{[2-(4-chlorophenyl)-4,4-dimethylcyclohex-1-en-1-yl]methyl}piperazin-1-yl)-2-(1H-pyrrolo[2,3-b]pyridin-5-yloxy)benzamide]",< 0.01
7,"CC1(C)CCC(CN2CCN(c3ccc(C(=O)NS(=O)(=O)c4ccc(N[C@@H]5CCOC5)c([N+](=O)[O-])c4)c(Oc4cnc5[nH]ccc5c4)c3)CC2)=C(c2ccc(Cl)cc2)C1 [Compound 238, 4-(4-{[2-(4-chlorophenyl)-4,4-dimethylcyclohex-1-en-1-yl]methyl}piperazin-1-yl)-N-({3-nitro-4-[(3R)-tetrahydrofuran-3-ylamino]phenyl}sulfonyl)-2-(1H-pyrrolo[2,3-b]pyridin-5-yloxy)benzamide]",< 0.01
8,"CC1(C)CCC(CN2CCN(c3ccc(C(=O)NS(=O)(=O)c4ccc(NC5CCN(C(C)(C)C)CC5)c(S(=O)(=O)C(F)(F)F)c4)c(Oc4cnc5[nH]ccc5c4)c3)CC2)=C(c2ccc(Cl)cc2)C1 [Compound 240, N-({4-[(1-tert-butylpiperidin-4-yl)amino]-3-[(trifluoromethyl)sulfonyl]phenyl}sulfonyl)-4-(4-{[2-(4-chlorophenyl)-4,4-dimethylcyclohex-1-en-1-yl]methyl}piperazin-1-yl)-2-(1H-pyrrolo[2,3-b]pyridin-5-yloxy)benzamide]",< 0.01
9,"CC1(C)CCC(CN2CCN(c3ccc(C(=O)NS(=O)(=O)c4ccc(NCC5CN(C6COC6)CCO5)c(S(=O)(=O)C(F)(F)F)c4)c(Oc4cnc5[nH]ccc5c4)c3)CC2)=C(c2ccc(Cl)cc2)C1 (stereo not drawn) [Compound 241, 4-(4-{[2-(4-chlorophenyl)-4,4-dimethylcyclohex-1-en-1-yl]methyl}piperazin-1-yl)-N-({4-({[4-(oxetan-3-yl)morpholin-2-yl]methyl}amino)-3-[(trifluoromethyl)sulfonyl]phenyl}sulfonyl)-2-(1H-pyrrolo[2,3-b]pyridin-5-yloxy)benzamide]",< 0.01
10,"CC1(C)CCC(CN2CCN(c3ccc(C(=O)NS(=O)(=O)c4ccc(NCC5CN(C(CF)CF)CCO5)c([N+](=O)[O-])c4)c(Oc4cnc5[nH]ccc5c4)c3)CC2)=C(c2ccc(Cl)cc2)C1 (stereo not drawn) [Compound 252, 4-(4-{[2-(4-chlorophenyl)-4,4-dimethylcyclohex-1-en-1-yl]methyl}piperazin-1-yl)-N-{[4-({[4-(1,3-difluoropropan-2-yl)morpholin-2-yl]methyl}amino)-3-nitrophenyl]sulfonyl}-2-(1H-pyrrolo[2,3-b]pyridin-5-yloxy)benzamide]",< 0.01
11,"COCCOCCN1CC[C@@H](Nc2ccc(S(=O)(=O)NC(=O)c3ccc(N4CCN(CC5=C(c6ccc(Cl)cc6)CC(C)(C)CC5)CC4)cc3Oc3cnc4[nH]ccc4c3)cc2[N+](=O)[O-])C1 [Compound 254, 4-(4-{[2-(4-chlorophenyl)-4,4-dimethylcyclohex-1-en-1-yl]methyl}piperazin-1-yl)-N-{[4-({(3R)-1-[2-(2-methoxyethoxyl)ethyl]pyrrolidin-3-yl}amino)-3-nitrophenyl]sulfonyl}-2-(1H-pyrrolo[2,3-b]pyridin-5-yloxy)benzamide]",< 0.01
12,"CN(C)CC(=O)N1CC[C@@H](Nc2ccc(S(=O)(=O)NC(=O)c3ccc(N4CCN(CC5=C(c6ccc(Cl)cc6)CC(C)(C)CC5)CC4)cc3Oc3cnc4[nH]ccc4c3)cc2[N+](=O)[O-])C1 [Compound 255, 4-(4-{[2-(4-chlorophenyl)-4,4-dimethylcyclohex-1-en-1-yl]methyl}piperazin-1-yl)-N-[(4-{[(3R)-1-(N,N-dimethylglycyl)pyrrolidin-3-yl]amino}-3-nitrophenyl)sulfonyl]-2-(1H-pyrrolo[2,3-b]pyridin-5-yloxy)benzamide]",< 0.01
13,"CC1(C)CCC(CN2CCN(c3ccc(C(=O)NS(=O)(=O)c4ccc(NC5CN(C6COC6)C5)c([N+](=O)[O-])c4)c(Oc4cnc5[nH]ccc5c4)c3)CC2)=C(c2ccc(Cl)cc2)C1 [Compound 256, 4-(4-{[2-(4-chlorophenyl)-4,4-dimethylcyclohex-1-en-1-yl]methyl}piperazin-1-yl)-N-[(3-nitro-4-{[1-(oxetan-3-yl)azetidin-3-yl]amino}phenyl)sulfonyl]-2-(1H-pyrrolo[2,3-b]pyridin-5-yloxy)benzamide]",< 0.01
14,"CN(C)CC(=O)N1CCO[C@H](CNc2ccc(S(=O)(=O)NC(=O)c3ccc(N4CCN(CC5=C(c6ccc(Cl)cc6)CC(C)(C)CC5)CC4)cc3Oc3cnc4[nH]ccc4c3)cc2[N+](=O)[O-])C1 [Compound 258, 4-(4-{[2-(4-chlorophenyl)-4,4-dimethylcyclohex-1-en-1-yl]methyl}piperazin-1-yl)-N-{[4-({[(2R)-4-(N,N-dimethylglycyl)morpholin-2-yl]methyl}amino)-3-nitrophenyl]sulfonyl}-2-(1H-pyrrolo[2,3-b]pyridin-5-yloxy)benzamide]",< 0.01
15,"CN(C)CC(=O)N1CCO[C@@H](CNc2ccc(S(=O)(=O)NC(=O)c3ccc(N4CCN(CC5=C(c6ccc(Cl)cc6)CC(C)(C)CC5)CC4)cc3Oc3cnc4[nH]ccc4c3)cc2[N+](=O)[O-])C1 [Compound 259, 4-(4-{[2-(4-chlorophenyl)-4,4-dimethylcyclohex-1-en-1-yl]methyl}piperazin-1-yl)-N-{[4-({[(2S)-4-(N,N-dimethylglycyl)morpholin-2-yl]methyl}amino)-3-nitrophenyl]sulfonyl}-2-(1H-pyrrolo[2,3-b]pyridin-5-yloxy)benzamide]",< 0.01
16,"CC1(C)CCC(CN2CCN(c3ccc(C(=O)NS(=O)(=O)c4ccc(N[C@@H]5CCN(CC#N)C5)c([N+](=O)[O-])c4)c(Oc4cnc5[nH]ccc5c4)c3)CC2)=C(c2ccc(Cl)cc2)C1 [Compound 262, 4-(4-{[2-(4-chlorophenyl)-4,4-dimethylcyclohex-1-en-1-yl]methyl}piperazin-1-yl)-N-[(4-{[(3R)-1-(cyanomethyl)pyrrolidin-3-yl]amino}-3-nitrophenyl)sulfonyl]-2-(1H-pyrrolo[2,3-b]pyridin-5-yloxy)benzamide]",< 0.01
17,"O=C(NS(=O)(=O)c1ccc(NCC2CCOCC2)c([N+](=O)[O-])c1)c1ccc(N2CCN(CC3=C(c4ccc(Cl)cc4)CCC4(CCN(C(CF)CF)CC4)C3)CC2)cc1Oc1cnc2[nH]ccc2c1 [Compound 265, 4-(4-{[9-(4-chlorophenyl)-3-(1,3-difluoropropan-2-yl)-3-azaspiro[5.5]undec-8-en-8-yl]methyl}piperazin-1-yl)-N-({3-nitro-4-[(tetrahydro-2H-pyran-4-ylmethyl)amino]phenyl}sulfonyl)-2-(1H-pyrrolo[2,3-b]pyridin-5-yloxy)benzamide]",< 0.01
18,"CC(C)N1CCC2(CCC(c3ccc(Cl)cc3)=C(CN3CCN(c4ccc(C(=O)NS(=O)(=O)c5ccc(NCC6CCOCC6)c([N+](=O)[O-])c5)c(Oc5cnc6[nH]ccc6c5)c4)CC3)C2)CC1 [Compound 266, 4-(4-{[9-(4-chlorophenyl)-3-isopropyl-3-azaspiro[5.5]undec-8-en-8-yl]methyl}piperazin-1-yl)-N-({3-nitro-4-[(tetrahydro-2H-pyran-4-ylmethyl)amino]phenyl}sulfonyl)-2-(1H-pyrrolo[2,3-b]pyridin-5-yloxy)benzamide]",< 0.01
